≈ marks a conversion by molar mass, not a printed value.
How the values were obtained:
Format in all cases: functional
Kodamaea ohmeri = experiment: Antifungal activity against multidrug-resistant Kodamaea ohmeri 396 assessed as inhibition in fungal growth incubated for 48 hrs by microplate reader analysis
Aspergillus fumigatus [1] = experiment: Antifungal activity against Aspergillus fumigatus ATCC MYA-3627 assessed as inhibition in fungal growth incubated for 48 hrs in presence of 10% serum by microplate reader analysis
Cryptococcus neoformans [2] = experiment: Antifungal activity against Cryptococcus neoformans H99 assessed as reduction in fungal growth incubated for 48 hrs by microplate reader analysis
Candida parapsilosis [3] = experiment: Antifungal activity against Candida parapsilosis 9 assessed as inhibition in fungal growth incubated for 48 hrs by microplate reader analysis; conditions: Lodderomyces parapsilosis
[Candida] auris [4] = Antifungal activity against multidrug-resistant Candida auris 390 assessed as inhibition in fungal growth incubated for 48 hrs by microplate reader analysis; conditions: Candidozyma auris
Fusarium solani [5] = experiment: Antifungal activity against Fusarium solani 243G2 assessed as reduction in fungal growth incubated for 48 hrs by microplate reader analysis
Candida albicans [6] = experiment: Antifungal activity against Candida albicans 1 assessed as inhibition in fungal growth incubated for 48 hrs by microplate reader analysis
Nakaseomyces glabratus [7] = experiment: Antifungal activity against Candida glabrata 2 assessed as inhibition in fungal growth incubated for 48 hrs by microplate reader analysis
Pichia kudriavzevii [8] = experiment: Antifungal activity against Candida krusei ATCC 6258 (Y-7179) assessed as reduction in fungal growth incubated for 48 hrs by microplate reader analysis
Pichia kudriavzevii [9] = experiment: Antifungal activity against Candida krusei 25 assessed as inhibition in fungal growth incubated for 48 hrs by microplate reader analysis
Candida albicans [10] = experiment: Antifungal activity against Candida albicans 5 assessed as inhibition in fungal growth incubated for 48 hrs by microplate reader analysis
[Candida] haemuloni = Antifungal activity against multidrug-resistant Candida haemulonii 393 assessed as inhibition in fungal growth incubated for 48 hrs by microplate reader analysis; conditions: Candidozyma haemuli
Nakaseomyces glabratus [11] = experiment: Antifungal activity against Candida glabrata 20 assessed as inhibition in fungal growth incubated for 48 hrs by microplate reader analysis
Nakaseomyces glabratus [12] = experiment: Antifungal activity against Candida glabrata 22 assessed as inhibition in fungal growth incubated for 48 hrs by microplate reader analysis
Candida tropicalis [13] = experiment: Antifungal activity against Candida tropicalis ATCC750 (Y-12699) assessed as reduction in fungal viability incubated for 48 hrs by microplate reader analysis
Candida parapsilosis [14] = experiment: Antifungal activity against Candida parapsilosis 18 assessed as inhibition in fungal growth incubated for 48 hrs by microplate reader analysis; conditions: Lodderomyces parapsilosis
Candida parapsilosis [15] = experiment: Antifungal activity against Candida parapsilosis ATCC 22019 (Y-12969) assessed as reduction in fungal viability incubated for 48 hrs by microplate reader analysis
Pichia kudriavzevii [16] = experiment: Antifungal activity against multidrug-resistant Candida krusei 397 assessed as inhibition in fungal growth incubated for 48 hrs by microplate reader analysis
Cryptococcus neoformans [17] = experiment: Antifungal activity against Cryptococcus neoformans H99 assessed as inhibition in fungal growth incubated for 48 hrs in presence of 0% serum by microplate reader analysis
Aspergillus terreus = experiment: Antifungal activity against Aspergillus terreus 191A6 assessed as reduction in fungal growth incubated for 48 hrs by microplate reader analysis
Candida albicans [18] = experiment: Antifungal activity against Candida albicans ATCC 10231 assessed as reduction in fungal growth incubated for 48 hrs by microplate reader analysis
Candida duobushaemulonii = experiment: Antifungal activity against multidrug-resistant Candida duobushaemulonii 391 assessed as inhibition in fungal growth incubated for 48 hrs by microplate reader analysis; conditions: Candidozyma duobushaemuli
Pichia kudriavzevii [19] = experiment: Antifungal activity against Candida krusei ATCC 6258 (Y-7179) assessed as reduction in fungal viability incubated for 48 hrs by microplate reader analysis
Candida tropicalis [20] = experiment: Antifungal activity against Candida tropicalis 13 assessed as inhibition in fungal growth incubated for 48 hrs by microplate reader analysis
Nakaseomyces glabratus [21] = experiment: Antifungal activity against Candida glabrata 4 assessed as inhibition in fungal growth incubated for 48 hrs by microplate reader analysis
Fusarium solani [22] = experiment: Antifungal activity against Fusarium solani 243G2 assessed as reduction in fungal viability incubated for 48 hrs by microplate reader analysis
Candida albicans [23] = experiment: Antifungal activity against Candida albicans 10 assessed as inhibition in fungal growth incubated for 48 hrs by microplate reader analysis
Aspergillus niger = experiment: Antifungal activity against Aspergillus niger FGSC A732 assessed as reduction in fungal growth incubated for 48 hrs by microplate reader analysis
Saccharomyces cerevisiae = experiment: Antifungal activity against multidrug-resistant Saccharomyces cerevisiae 400 assessed as inhibition in fungal growth incubated for 48 hrs by microplate reader analysis
Nakaseomyces glabratus [24] = experiment: Antifungal activity against Candida glabrata 16 assessed as inhibition in fungal growth incubated for 48 hrs by microplate reader analysis
Candida albicans [25] = experiment: Antifungal activity against Candida albicans SC5314 assessed as inhibition in fungal growth incubated for 48 hrs in presence of 10% serum by microplate reader analysis
[Candida] auris [26] = Antifungal activity against multidrug-resistant Candida auris 381 assessed as inhibition in fungal growth incubated for 48 hrs in presence of 5% serum by microplate reader analysis; conditions: Candidozyma auris
[Candida] auris [27] = Antifungal activity against multidrug-resistant Candida auris 389 assessed as inhibition in fungal growth incubated for 48 hrs by microplate reader analysis; conditions: Candidozyma auris
[Candida] auris [28] = Antifungal activity against multidrug-resistant Candida auris 381 assessed as inhibition in fungal growth incubated for 48 hrs in presence of 10% serum by microplate reader analysis; conditions: Candidozyma auris
Candida albicans [29] = experiment: Antifungal activity against Candida albicans 3 assessed as inhibition in fungal growth incubated for 48 hrs by microplate reader analysis
[Candida] auris [30] = Antifungal activity against multidrug-resistant Candida auris 385 assessed as inhibition in fungal growth incubated for 48 hrs by microplate reader analysis; conditions: Candidozyma auris
Candida parapsilosis [31] = experiment: Antifungal activity against Candida parapsilosis 7 assessed as inhibition in fungal growth incubated for 48 hrs by microplate reader analysis; conditions: Lodderomyces parapsilosis
[Candida] auris [32] = Antifungal activity against multidrug-resistant Candida auris 384 assessed as inhibition in fungal growth incubated for 48 hrs by microplate reader analysis; conditions: Candidozyma auris
Aspergillus fumigatus [33] = experiment: Antifungal activity against Aspergillus fumigatus ATCC MYA-3627 assessed as inhibition in fungal growth incubated for 48 hrs in presence of 0% serum by microplate reader analysis
[Candida] auris [34] = Antifungal activity against multidrug-resistant Candida auris 381 assessed as inhibition in fungal growth incubated for 48 hrs in presence of 0% serum by microplate reader analysis; conditions: Candidozyma auris
Nakaseomyces glabratus [35] = experiment: Antifungal activity against Candida glabrata 17 assessed as inhibition in fungal growth incubated for 48 hrs by microplate reader analysis
Candida parapsilosis [36] = experiment: Antifungal activity against Candida parapsilosis 15 assessed as inhibition in fungal growth incubated for 48 hrs by microplate reader analysis; conditions: Lodderomyces parapsilosis
Clavispora lusitaniae = experiment: Antifungal activity against multidrug-resistant Candida lusitaniae 398 assessed as inhibition in fungal growth incubated for 48 hrs by microplate reader analysis
Aspergillus flavus = experiment: Antifungal activity against Aspergillus flavus NRRL485 assessed as reduction in fungal growth incubated for 48 hrs by microplate reader analysis

C[C@@H]1[C@H](O)[C@@H](C)/C=C/C=C/C=C/C=C/C=C/C=C/C=C/[C@H](O[C@@H]2O[C@H](C)[C@@H](O)[C@H](N)[C@@H]2O)C[C@@H]2O[C@](O)(C[C@@H](O)C[C@@H](O)[C@H](O)CC[C@@H](O)C[C@@H](O)CC(=O)O[C@H]1C)C[C@H](O)[C@H]2C(=O)O [AMPHOTERICIN B]
MIC80 (Kodamaea ohmeri): 1.3 µM (≈ 1.2 µg/mL) | MIC80 (Aspergillus fumigatus [1]): 0.2 µM | MFC (Cryptococcus neoformans [2]): 2.5 µM (≈ 2.31 µg/mL) | MIC80 (Cryptococcus neoformans [2]): 1.3 µM (≈ 1.2 µg/mL) | MIC80 (Candida parapsilosis [3]): 2.5 µM (≈ 2.31 µg/mL) | MIC80 ([Candida] auris [4]): 2.5 µM (≈ 2.31 µg/mL) | MFC (Fusarium solani [5]): 1.3 µM (≈ 1.2 µg/mL) | MIC80 (Fusarium solani [5]): 1.3 µM (≈ 1.2 µg/mL) | MIC80 (Candida albicans [6]): 0.6 µM (≈ 0.554 µg/mL) | MIC80 (Nakaseomyces glabratus [7]): 0.3 µM (≈ 0.277 µg/mL) | MFC (Pichia kudriavzevii [8]): 5 µM (≈ 4.62 µg/mL) | MIC80 (Pichia kudriavzevii [8]): 2.5 µM (≈ 2.31 µg/mL) | MIC80 (Pichia kudriavzevii [9]): 1.3 µM (≈ 1.2 µg/mL) | MIC80 (Candida albicans [10]): 0.6 µM (≈ 0.554 µg/mL) | MIC80 ([Candida] haemuloni): 5 µM (≈ 4.62 µg/mL) | MIC80 (Nakaseomyces glabratus [11]): 0.6 µM (≈ 0.554 µg/mL) | MIC80 (Nakaseomyces glabratus [12]): 0.3 µM (≈ 0.277 µg/mL) | MFC<=99.9 (Candida tropicalis [13]): 2.5 µM (≈ 2.31 µg/mL) | MIC80 (Candida parapsilosis [14]): 1.3 µM (≈ 1.2 µg/mL) | MFC<=99.9 (Candida parapsilosis [15]): 5 µM (≈ 4.62 µg/mL) | MIC80 (Pichia kudriavzevii [16]): 2.5 µM (≈ 2.31 µg/mL) | MIC80 (Cryptococcus neoformans [17]): 1.3 µM | MFC (Aspergillus terreus): 10 µM (≈ 9.24 µg/mL) | MIC80 (Aspergillus terreus): 2.5 µM (≈ 2.31 µg/mL) | MFC (Candida albicans [18]): 2.5 µM (≈ 2.31 µg/mL) | MIC80 (Candida albicans [18]): 0.6 µM (≈ 0.554 µg/mL) | MIC80 (Candida duobushaemulonii): 5 µM (≈ 4.62 µg/mL) | MFC<=99.9 (Pichia kudriavzevii [19]): 5 µM (≈ 4.62 µg/mL) | MIC80 (Candida tropicalis [20]): 0.2 µM (≈ 0.185 µg/mL) | MIC80 (Nakaseomyces glabratus [21]): 1.3 µM (≈ 1.2 µg/mL) | MFC<=99.9 (Fusarium solani [22]): 1.3 µM (≈ 1.2 µg/mL) | MIC80 (Candida albicans [23]): 0.6 µM (≈ 0.554 µg/mL) | MFC (Aspergillus niger): 2.5 µM (≈ 2.31 µg/mL) | MIC80 (Aspergillus niger): 0.6 µM (≈ 0.554 µg/mL) | MIC80 (Saccharomyces cerevisiae): 1.3 µM (≈ 1.2 µg/mL) | MIC80 (Nakaseomyces glabratus [24]): 0.2 µM (≈ 0.185 µg/mL) | MIC80 (Candida albicans [25]): < 0.2 µM | MIC80 ([Candida] auris [26]): < 0.2 µM | MIC80 ([Candida] auris [27]): 5 µM (≈ 4.62 µg/mL) | MIC80 ([Candida] auris [28]): 0.3 µM | MIC80 (Candida albicans [29]): 0.6 µM (≈ 0.554 µg/mL) | MIC80 ([Candida] auris [30]): 2.5 µM (≈ 2.31 µg/mL) | MIC80 (Candida parapsilosis [31]): 2.5 µM (≈ 2.31 µg/mL) | MIC80 ([Candida] auris [32]): 2.5 µM (≈ 2.31 µg/mL) | MIC80 (Aspergillus fumigatus [33]): 2.5 µM | MIC80 ([Candida] auris [34]): 2.5 µM | MIC80 (Nakaseomyces glabratus [35]): 0.3 µM (≈ 0.277 µg/mL) | MIC80 (Candida parapsilosis [36]): 2.5 µM (≈ 2.31 µg/mL) | MIC80 (Clavispora lusitaniae): 0.6 µM (≈ 0.554 µg/mL) | MFC (Aspergillus flavus): 10 µM (≈ 9.24 µg/mL) | MIC80 (Aspergillus flavus): 5 µM (≈ 4.62 µg/mL)

From ChEMBL document CHEMBL5390204, “Persephacin Is a Broad-Spectrum Antifungal Aureobasidin Metabolite That Overcomes Intrinsic Resistance in Aspergillus fumigatus” (J Nat Prod, 2023)
